From patent US12435023B2, “Crystal form of Treprostinil sodium salt and preparation method therefor” (Shanghai Forefront Pharmaceutical Co., Ltd, priority 2019, dated 2025)
Counter-ions that a name gives are not always drawn.

Key:
[1] = Water solubility at 25±2° C., dissolution observed within 30 minutes; conditions: for solubility at 30 min: 25 °C, thermodynamic from solid; for Dissolution observed in water: 25±2° C., within 30 minutes, free acid 20 mg in 200 mL, salt forms about 100 mg in 1 mL
Experimental: 20 mg of Treprostinil free acid was weighed and added into a volumetric flask, 200 mL of water was added, and placed in a water bath pot (temperature was controlled at 25±2° C.), shook strongly for 30 seconds every 5 minutes, and the dissolution within 30 minutes was observed.

[2] = 60% relative humidity, according to WO2016055819; cited from earlier work
[3] = Accelerated stability at 40±2° C. and 75±5% relative humidity for 6 months; conditions: 75±5% RH
Experimental: The purity of samples after stability test was determined by HPLC, the water content of samples after stability test was determined by Karl Fischer titration, and the crystal form of samples after stability test was determined by XRPD.

[4] = Hygroscopicity on storage at 25 degrees and 80% relative humidity for 24 hours; assay type: physicochemical; conditions: 25 degrees
[5] = Hygroscopicity by dynamic vapor sorption (DVS); assay type: physicochemical; conditions: for Water content: DVS
From the text: Hygroscopicity is one of the key physicochemical properties of drugs and has a significant impact on drug stability, powderological properties and subsequent processing procedure.

**Q.** Which solubility at 30 min [1] does the source give for `CCCCC[C@H](O)CC[C@@H]1[C@H]2Cc3cccc(OCC(=O)O)c3C[C@H]2C[C@H]1O` [Treprostinil free acid, Treprostinil] here?
**A.** < 0.1 mg/mL

**Q.** What about the “Dissolution observed in water” value [1] of the same molecule?
**A.** insoluble

**Q.** With `CCCCC[C@H](O)CC[C@@H]1[C@H]2Cc3cccc(OCC(=O)O)c3C[C@H]2C[C@H]1O` [Form A, Treprostinil sodium salt] as the molecule, how does the Crystal form conversion [2] read?
**A.** converted into Form C

**Q.** With `CCCCC[C@H](O)CC[C@@H]1[C@H]2Cc3cccc(OCC(=O)[O-])c3C[C@H]2C[C@H]1O.[Na+]` [Treprostinil sodium salt] as the molecule, how does the Appearance ([3]; 0 day) read?
**A.** Off-white

**Q.** And the “Purity (HPLC) after stability test” value ([3]; 0 day)?
**A.** 99.97%

**Q.** What about the “Water (Karl Fischer) after stability test” value (from here on “Water (Karl Fischer)”) ([3]; 0 day) of the same molecule?
**A.** 20.1%

**Q.** And the Appearance ([3]; 1 month)?
**A.** Off-White

**Q.** And the “Purity (HPLC) after stability test” value ([3]; 1 month)?
**A.** 99.97%

**Q.** And the “Water (Karl Fischer)” value ([3]; 1 month)?
**A.** 20.4%

**Q.** What about the Appearance ([3]; 3 months) of the same molecule?
**A.** Off-white

**Q.** And the “Purity (HPLC) after stability test” value ([3]; 3 months)?
**A.** 99.96%

**Q.** What about the “Water (Karl Fischer)” value ([3]; 3 months) of the same molecule?
**A.** 20.0%

**Q.** And the Appearance ([3]; 6 months)?
**A.** Off-white

**Q.** What about the “Chemical stability and solid-state stability” value ([3]; 6 months) of the same molecule?
**A.** excellent chemical stability and solid-state stability

**Q.** And the “Purity (HPLC) after stability test” value ([3]; 6 months)?
**A.** 99.98%

**Q.** What about the “Water (Karl Fischer)” value ([3]; 6 months) of the same molecule?
**A.** 20.2%

**Q.** What about the solubility at 30 min [1] of the same molecule?
**A.** > 100 mg/mL

**Q.** What about the “Dissolution observed in water” value [1] of the same molecule?
**A.** completely dissolved

**Q.** What about the “Behaviour of the solid on humid storage” value [4] of the same molecule?
**A.** deliquesced into a viscous solution

**Q.** What about the Hygroscopicity [4] of the same molecule?
**A.** extremely hygroscopic

**Q.** What about the Water content ([5]; 40.0 RH % / 25° C.) of the same molecule?
**A.** 18.6 wt %

**Q.** What about the Water content ([5]; 45.0 RH % / 25° C.) of the same molecule?
**A.** 18.7 wt %

**Q.** What about the Water content ([5]; 50.0 RH % / 25° C.) of the same molecule?
**A.** 18.7 wt %

**Q.** What about the Water content ([5]; 55.0 RH % / 25° C.) of the same molecule?
**A.** 18.8 wt %

**Q.** And the Water content ([5]; 60.0 RH % / 25° C.)?
**A.** 18.8 wt %

**Q.** And the Water content ([5]; 65.0 RH % / 25° C.)?
**A.** 18.9 wt %

**Q.** What about the Water content ([5]; 70.0 RH % / 25° C.) of the same molecule?
**A.** 18.9 wt %

**Q.** And the Water content ([5]; 75.0 RH % / 25° C.)?
**A.** 19.0 wt %

**Q.** And the Water content ([5]; 80.0 RH % / 25° C.)?
**A.** 19.7 wt %

**Q.** And the Water content ([5]; 85.0 RH % / 25° C.)?
**A.** 19.9 wt %

**Q.** What about the Water content ([5]; 90.0 RH % / 25° C.) of the same molecule?
**A.** 20.5 wt %

**Q.** What about the Water content ([5]; 95.0 RH % / 25° C.) of the same molecule?
**A.** 22.6 wt %

**Q.** And the “Hygroscopicity according to the definition in European Pharmacopoeia” value ([5]; relative humidity 40% to 80%)?
**A.** slight hygroscopicity

**Q.** And the “Increasing value of the water content, i.e., hygroscopicity” value ([5]; relative humidity increased from 40% to 80%)?
**A.** 1.1 wt %
